Like-named read-outs stand apart in the source and are kept apart here. Blank lines part the entries; values can stand above or below the compound they belong to. Bridge positions count the residues as written; N and C are the ends. Square brackets hold non-standard residues; d marks the D form. Dap = NC[C@H](N)C(=O)O
Experiments:
[1] = target: mouse melanocortin-5 receptor (mouse) (UniProt P41149)
[2] = target: T1, mouse MC3R (Mus musculus, UniProt P33033); conditions: for MC3R activity in words: agonist (up to 100 μM) and antagonist activity at the concentrations assayed; for mMC3R percent maximal stimulatory response at 100 μM: 100000.0
T1 sequence (P33033 whole entry): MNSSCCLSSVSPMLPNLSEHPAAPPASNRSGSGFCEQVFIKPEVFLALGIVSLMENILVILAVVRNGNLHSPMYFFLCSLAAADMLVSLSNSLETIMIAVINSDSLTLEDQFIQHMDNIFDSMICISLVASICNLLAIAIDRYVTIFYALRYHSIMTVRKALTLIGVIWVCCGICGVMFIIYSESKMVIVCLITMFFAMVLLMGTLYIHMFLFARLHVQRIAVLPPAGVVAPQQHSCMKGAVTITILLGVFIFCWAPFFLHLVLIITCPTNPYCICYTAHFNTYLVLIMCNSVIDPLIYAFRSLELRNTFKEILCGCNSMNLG

[3] = target: T2, mouse MC5R (Mus musculus, UniProt P41149); conditions: for mMC5R inverse agonist, percent change from basal at 100 μM / mMC5R percent maximal stimulatory response at 100 μM: 100000.0; for MC5R activity in words: up to 100 μM
T2 sequence (P41149 whole entry): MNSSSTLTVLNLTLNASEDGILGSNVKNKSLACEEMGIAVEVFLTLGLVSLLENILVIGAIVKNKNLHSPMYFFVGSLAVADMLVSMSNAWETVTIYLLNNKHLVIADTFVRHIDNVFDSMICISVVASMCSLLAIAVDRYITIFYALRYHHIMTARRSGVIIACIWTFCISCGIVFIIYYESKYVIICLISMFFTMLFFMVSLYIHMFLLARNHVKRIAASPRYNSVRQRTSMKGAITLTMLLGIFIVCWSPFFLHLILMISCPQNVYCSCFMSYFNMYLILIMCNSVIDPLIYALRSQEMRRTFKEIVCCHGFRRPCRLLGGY

[4] = target: T3, mouse MC1R (Mus musculus, UniProt Q01727); test: cell-based
T3 sequence (Q01727 whole entry): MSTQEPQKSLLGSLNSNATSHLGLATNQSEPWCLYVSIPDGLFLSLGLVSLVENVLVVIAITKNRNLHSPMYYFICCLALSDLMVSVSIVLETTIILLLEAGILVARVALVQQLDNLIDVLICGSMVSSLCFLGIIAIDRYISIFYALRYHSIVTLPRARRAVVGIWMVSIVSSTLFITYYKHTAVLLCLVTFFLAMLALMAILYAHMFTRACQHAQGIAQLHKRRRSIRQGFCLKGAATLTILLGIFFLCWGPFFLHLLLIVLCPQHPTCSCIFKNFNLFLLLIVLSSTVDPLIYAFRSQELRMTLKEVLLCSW

[5] = target: T1, mouse MC3R; test: cell-based
[6] = target: T1, mouse MC3R; test: cAMP AlphaScreen antagonist assay
[7] = target: T4, mouse MC4R (Mus musculus, UniProt P56450); test: cAMP AlphaScreen agonist assay, HEK293 cells stably expressing mouse MC4R; conditions: agonist (up to 100 μM) and antagonist activity at the concentrations assayed
T4 sequence (P56450 whole entry): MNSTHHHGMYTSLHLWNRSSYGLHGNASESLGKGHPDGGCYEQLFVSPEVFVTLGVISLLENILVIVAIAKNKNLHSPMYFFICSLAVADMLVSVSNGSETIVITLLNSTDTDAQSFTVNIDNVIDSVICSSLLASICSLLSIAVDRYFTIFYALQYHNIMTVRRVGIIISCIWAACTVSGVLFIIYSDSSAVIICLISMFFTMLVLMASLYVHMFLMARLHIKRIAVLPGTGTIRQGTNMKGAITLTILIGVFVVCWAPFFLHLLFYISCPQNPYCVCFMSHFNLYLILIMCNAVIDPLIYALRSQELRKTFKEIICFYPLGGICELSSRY

[8] = target: T4, mouse MC4R; test: cAMP AlphaScreen antagonist assay; conditions: highest assayed concentrations
[9] = target: T3, mouse MC1R; conditions: for MC1R potency increase compared to the starting ligand 2: agonist potency relative to 2; for mMC1R percent maximal stimulatory response at 100 μM: 100000.0
[10] = target: T2, mouse MC5R; test: cell-based
[11] = target: mouse melanocortin-3 receptor (mouse) (UniProt P33033)
mouse melanocortin-3 receptor (mouse), sequence (P33033 whole entry): as the sequence (P33033 whole entry) above

[12] = target: mouse melanocortin-4 receptor (mouse) (UniProt P56450)
mouse melanocortin-4 receptor (mouse), sequence (P56450 whole entry): as the sequence (P56450 whole entry) above

[13] = system: MC1R; conditions: read-out: MC1R agonist potency, cited from earlier work

mouse melanocortin-5 receptor (mouse), sequence (P41149 whole entry): as the sequence (P41149 whole entry) above

Compound: C[C@@H]1NC(=O)[C@H](CN)NC(=O)[C@@H](Cc2ccccc2)NC(=O)[C@@H](Cc2ccccc2)NC(=O)[C@@H](CCCNC(=N)N)NC(=O)[C@@H]2CCCN2C(=O)[C@H]2CCCN2C(=O)[C@H](Cc2ccccc2)NC1=O [Peptide 16, c[Pro-DArg-DPhe-DPhe-Dap-Ala-Phe-DPro]]
MC3R activity in words [2]: no activity
mMC5R inverse agonist, percent change from basal at 100 μM [3]: 15%
MC5R activity in words [3]: apparent inverse agonist activity
EC50 [4]: 2200 nM
EC50 [5]: > 100000 nM
Kb [6]: > 3160 nM

Compound: C[C@@H]1NC(=O)[C@H](CN)NC(=O)[C@H](Cc2ccccc2)NC(=O)[C@@H](Cc2ccccc2)NC(=O)[C@@H](CCCNC(=N)N)NC(=O)[C@@H]2CCCN2C(=O)[C@H]2CCCN2C(=O)[C@H](Cc2ccccc2)NC1=O [Peptide 13, c[Pro-DArg-DPhe-Phe-Dap-Ala-Phe-DPro]]
mMC5R inverse agonist, percent change from basal at 100 μM [3]: 30%
MC5R activity in words [3]: apparent inverse agonist activity
EC50 [4]: 800 nM
EC50 [5]: > 100000 nM
Kb [6]: 1000 nM

Compound: C[C@@H]1NC(=O)[C@H](CC(N)=O)NC(=O)[C@@H](Cc2ccccc2)NC(=O)[C@@H](Cc2ccccc2)NC(=O)[C@@H](CCCNC(=N)N)NC(=O)[C@@H]2CCCN2C(=O)[C@H]2CCCN2C(=O)[C@H](Cc2ccccc2)NC1=O [Peptide 9, c[Pro-DArg-DPhe-DPhe-Asn-Ala-Phe-DPro]]
MC3R activity in words [2]: No agonist or antagonist activity was observed
mMC5R percent maximal stimulatory response at 100 μM [3]: 55%
EC50 [4]: 1300 nM
MC4R activity in words [7]: No agonist or antagonist activity was observed
MC4R antagonist activity in words [8]: did not possess antagonist activity

Compound: C[C@@H]1NC(=O)[C@H](CN)NC(=O)[C@H](Cc2ccccc2)NC(=O)[C@@H](Cc2ccccc2)NC(=O)[C@H](CCCNC(=N)N)NC(=O)[C@@H]2CCCN2C(=O)[C@H]2CCCN2C(=O)[C@H](Cc2ccccc2)NC1=O [Peptide 11, c[Pro-Arg-DPhe-Phe-Dap-Ala-Phe-DPro]]
MC1R potency increase compared to the starting ligand 2 [9]: > 1,000 fold
MC3R activity in words [2]: No agonist activity was observed
MC5R activity in words [3]: No agonist activity was observed
EC50 [4]: 230 ± 80 nM
EC50 [5]: > 100000 nM
EC50 [10]: > 100000 nM
Kb [6]: 1200 nM

Compound: C[C@@H]1NC(=O)[C@H](CN)NC(=O)[C@@H](Cc2ccccc2)NC(=O)[C@H](Cc2ccccc2)NC(=O)[C@@H](CCCNC(=N)N)NC(=O)[C@@H]2CCCN2C(=O)[C@H]2CCCN2C(=O)[C@H](Cc2ccccc2)NC1=O [Peptide 14, c[Pro-DArg-Phe-DPhe-Dap-Ala-Phe-DPro]]
mMC5R inverse agonist, percent change from basal at 100 μM [3]: 20%
MC5R activity in words [3]: apparent inverse agonist activity
EC50 [4]: 450 nM
EC50 [5]: > 100000 nM
Kb [6]: 2000 nM

Compound: H-Tyr-c[Dap-Arg-Phe-Phe-Asn-Ala-Phe-Asp]-Tyr-NH2 (Y[Dap]RFFNAFDY-NH2; lactam N-9; SMILES C[C@@H]1NC(=O)[C@H](CC(N)=O)NC(=O)[C@H](Cc2ccccc2)NC(=O)[C@H](Cc2ccccc2)NC(=O)[C@H](CCCNC(=N)N)NC(=O)[C@H](CN)NC(=O)[C@H](Cc2ccc(O)cc2)NC(=O)C[C@@H](C(=O)N[C@@H](Cc2ccc(O)cc2)C(N)=O)NC(=O)[C@H](Cc2ccccc2)NC1=O)
EC50 ([13]; previously reported ref 34): 28100 nM

Compound: C[C@@H]1NC(=O)[C@H](CN)NC(=O)[C@@H](Cc2ccccc2)NC(=O)[C@@H](Cc2ccccc2)NC(=O)[C@H](CCCNC(=N)N)NC(=O)[C@@H]2CCCN2C(=O)[C@H]2CCCN2C(=O)[C@H](Cc2ccccc2)NC1=O [Peptide 15, c[Pro-Arg-DPhe-DPhe-Dap-Ala-Phe-DPro]]
MC1R potency increase compared to the starting ligand 2 [9]: > 1,000 fold
MC5R activity in words [3]: no activity was observed
EC50 [4]: 700 ± 300 nM
EC50 [5]: > 100000 nM
EC50 [10]: > 100000 nM
Kb [6]: 2000 nM

Compound: C[C@@H]1NC(=O)[C@H](CC(N)=O)NC(=O)[C@H](Cc2ccccc2)NC(=O)[C@@H](Cc2ccccc2)NC(=O)[C@@H](CCCNC(=N)N)NC(=O)[C@@H]2CCCN2C(=O)[C@H]2CCCN2C(=O)[C@H](Cc2ccccc2)NC1=O [Peptide 6, c[Pro-DArg-DPhe-Phe-Asn-Ala-Phe-DPro]]
MC3R activity in words [2]: No activity was observed
mMC5R percent maximal stimulatory response at 100 μM [3]: 55%
EC50 [4]: 500 nM
MC4R activity in words [7]: No activity was observed
MC4R antagonist activity in words [8]: did not possess antagonist activity

Compound: C[C@@H]1NC(=O)[C@H](CN)NC(=O)[C@H](Cc2ccccc2)NC(=O)[C@H](Cc2ccccc2)NC(=O)[C@@H](CCCNC(=N)N)NC(=O)[C@@H]2CCCN2C(=O)[C@H]2CCCN2C(=O)[C@H](Cc2ccccc2)NC1=O [Peptide 10, c[Pro-DArg-Phe-Phe-Dap-Ala-Phe-DPro]]
mMC1R percent maximal stimulatory response at 100 μM [9]: 25%
mMC3R percent maximal stimulatory response at 100 μM [2]: 25%
MC5R activity in words [3]: no activity was observed
EC50 [10]: > 100000 nM
Kb [6]: 2000 nM

Compound: C[C@@H]1NC(=O)[C@H](CC(N)=O)NC(=O)[C@H](Cc2ccccc2)NC(=O)[C@H](Cc2ccccc2)NC(=O)[C@@H](CCCNC(=N)N)NC(=O)[C@@H]2CCCN2C(=O)[C@H]2CCCN2C(=O)[C@H](Cc2ccccc2)NC1=O [Peptide 3, c[Pro-DArg-Phe-Phe-Asn-Ala-Phe-DPro]]
MC4R antagonist activity in words [8]: did not possess antagonist activity

Compound: C[C@@H]1NC(=O)[C@H](CC(N)=O)NC(=O)[C@H](Cc2ccccc2)NC(=O)[C@@H](Cc2ccccc2)NC(=O)[C@H](CCCNC(=N)N)NC(=O)[C@@H]2CCCN2C(=O)[C@H]2CCCN2C(=O)[C@H](Cc2ccccc2)NC1=O [Peptide 4, c[Pro-Arg-DPhe-Phe-Asn-Ala-Phe-DPro]]
mMC5R inverse agonist, percent change from basal at 100 μM [3]: 25%
MC5R activity in words [3]: apparent inverse agonist activity
EC50 [4]: 700 nM

Compound: C[C@@H]1NC(=O)[C@H](CC(N)=O)NC(=O)[C@@H](Cc2ccccc2)NC(=O)[C@@H](Cc2ccccc2)NC(=O)[C@H](CCCNC(=N)N)NC(=O)[C@@H]2CCCN2C(=O)[C@H]2CCCN2C(=O)[C@H](Cc2ccccc2)NC1=O [Peptide 8, c[Pro-Arg-DPhe-DPhe-Asn-Ala-Phe-DPro]]
EC50 [4]: 800 nM

Compound: C[C@@H]1NC(=O)[C@H](CC(N)=O)NC(=O)[C@@H](Cc2ccccc2)NC(=O)[C@H](Cc2ccccc2)NC(=O)[C@@H](CCCNC(=N)N)NC(=O)[C@@H]2CCCN2C(=O)[C@H]2CCCN2C(=O)[C@H](Cc2ccccc2)NC1=O [Peptide 7, c[Pro-DArg-Phe-DPhe-Asn-Ala-Phe-DPro]]
mMC3R percent maximal stimulatory response at 100 μM [2]: 35%
MC5R activity in words [3]: full agonist
MC4R antagonist activity in words [8]: did not possess antagonist activity

Compound: C[C@@H]1NC(=O)[C@H](CC(N)=O)NC(=O)[C@@H](Cc2ccccc2)NC(=O)[C@H](Cc2ccccc2)NC(=O)[C@H](CCCNC(=N)N)NC(=O)[C@@H]2CCCN2C(=O)[C@H]2CCCN2C(=O)[C@H](Cc2ccccc2)NC1=O [Peptide 5, c[Pro-Arg-Phe-DPhe-Asn-Ala-Phe-DPro]]
mMC1R percent maximal stimulatory response at 100 μM [9]: 50%
MC4R activity in words [7]: loss of agonist and antagonist activities

Compound: H-Tyr-c[Cys-Arg-Phe-Phe-Asn-Ala-Phe-Cys]-Tyr-OH
EC50 ([13]; previously reported ref 33): 2890 nM

Continued, values first:

agonist EC50; cAMP AlphaScreen, HEK293 cells stably expressing mouse MC5R [1]: > 100000 nM
Compound: c[Pro-DArg-Phe-Phe-Dap-Ala-Phe-DPro] (peptide)

MC3R activity in words [2]: No activity was observed
MC5R activity in words [3]: No activity was observed
EC50 [4]: 800 nM
EC50 [5]: > 100000 nM
EC50 [10]: > 100000 nM
Kb [6]: > 3160 nM
Compound: C[C@@H]1NC(=O)[C@H](CN)NC(=O)[C@@H](Cc2ccccc2)NC(=O)[C@H](Cc2ccccc2)NC(=O)[C@H](CCCNC(=N)N)NC(=O)[C@@H]2CCCN2C(=O)[C@H]2CCCN2C(=O)[C@H](Cc2ccccc2)NC1=O [Peptide 12, c[Pro-Arg-Phe-DPhe-Dap-Ala-Phe-DPro]]

agonist EC50; cAMP AlphaScreen, HEK293 cells stably expressing mouse MC3R [11]: > 100000 nM
agonist EC50; cAMP AlphaScreen, HEK293 cells stably expressing mouse MC4R [12]: > 100000 nM
Compound: c[Pro-DArg-DPhe-Phe-Dap-Ala-Phe-DPro] (peptide)

agonist EC50; cAMP AlphaScreen, HEK293 cells stably expressing mouse MC3R [11]: > 100000 nM
agonist EC50; cAMP AlphaScreen, HEK293 cells stably expressing mouse MC4R [12]: > 100000 nM
Compound: c[Pro-DArg-DPhe-DPhe-Dap-Ala-Phe-DPro] (peptide)

agonist EC50; cAMP AlphaScreen, HEK293 cells stably expressing mouse MC3R [11]: > 100000 nM
agonist EC50; cAMP AlphaScreen, HEK293 cells stably expressing mouse MC5R [1]: > 100000 nM
Compound: c[Pro-Arg-DPhe-Phe-Dap-Ala-Phe-DPro] (peptide)

agonist EC50; cAMP AlphaScreen, HEK293 cells stably expressing mouse MC3R [11]: > 100000 nM
agonist EC50; cAMP AlphaScreen, HEK293 cells stably expressing mouse MC4R [12]: > 100000 nM
Compound: c[Pro-DArg-Phe-DPhe-Dap-Ala-Phe-DPro] (peptide)

agonist EC50; cAMP AlphaScreen, HEK293 cells stably expressing mouse MC3R [11]: > 100000 nM
agonist EC50; cAMP AlphaScreen, HEK293 cells stably expressing mouse MC4R [12]: > 100000 nM
agonist EC50; cAMP AlphaScreen, HEK293 cells stably expressing mouse MC5R [1]: > 100000 nM
Compound: c[Pro-Arg-Phe-DPhe-Dap-Ala-Phe-DPro] (peptide)

agonist EC50; cAMP AlphaScreen, HEK293 cells stably expressing mouse MC3R [11]: > 100000 nM
agonist EC50; cAMP AlphaScreen, HEK293 cells stably expressing mouse MC4R [12]: > 100000 nM
agonist EC50; cAMP AlphaScreen, HEK293 cells stably expressing mouse MC5R [1]: > 100000 nM
Compound: c[Pro-Arg-DPhe-DPhe-Dap-Ala-Phe-DPro] (peptide)

From paper PMC6339850 (ACS chemical neuroscience, 2018)
